Where a name gives a salt, the structure may show the parent alone.
Columns and labels:
human and animal plasma = assay: Determination of anticoagulatory activity: activated partial thromboplastin time (aPTT) in plasma; details: concentration of test substance which brings about a 1.5-fold extension of the aPTT; plasma species not given
Protocol: The anticoagulatory activity of the test substances is determined in vitro in human and animal plasma (for example mouse, rat, rabbit, pig and dog plasma). To this end, blood is drawn off in a mixing ratio of sodium citrate/blood of 1:9 using a 0.11 molar sodium citrate solution as receiver. Immediately after the blood has been drawn off, it is mixed thoroughly and centrifuged at about 4000 g for 15 minutes. The supernatant is pipetted off.
The activated partial thromboolastin time (aPTT) is determined in the presence of varying concentrations of test substance or the corresponding solvent using a commercial test kit (C. K. Prest from Diagnostica Stago). The test compounds are incubated with the plasma and the PTT reagent (cephalin, kaolin) at 37° C. for 3 minutes. Coagulation is then started by addition of a 25 mM aqueous calcium chloride solution, and the time when coagulation occurs is determined. The concentration of test substance which brings about a 1.5-fold extension of the aPTT is determined.

human factor XIa = target: T1, human factor XIa (Homo sapiens, UniProt P03951); assay: Measurement of FXIa inhibition (fluorogenic peptide substrate Boc-Glu(OBzl)-Ala-Arg-AMC); type: biochemical; details: factor XIa from Kordia, 15 min preincubation, 30 min at 22° C., fluorescence
T1 construct: purchased Kordia
T1 sequence (P03951 388-625 limits assumed): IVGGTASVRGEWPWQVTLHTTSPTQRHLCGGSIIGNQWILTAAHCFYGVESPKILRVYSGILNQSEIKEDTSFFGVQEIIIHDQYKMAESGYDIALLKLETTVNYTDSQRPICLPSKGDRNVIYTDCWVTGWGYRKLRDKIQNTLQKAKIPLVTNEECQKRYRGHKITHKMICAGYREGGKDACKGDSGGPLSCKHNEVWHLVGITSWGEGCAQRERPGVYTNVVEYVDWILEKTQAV
T1 sequence (P03951 19-387 partner limits assumed): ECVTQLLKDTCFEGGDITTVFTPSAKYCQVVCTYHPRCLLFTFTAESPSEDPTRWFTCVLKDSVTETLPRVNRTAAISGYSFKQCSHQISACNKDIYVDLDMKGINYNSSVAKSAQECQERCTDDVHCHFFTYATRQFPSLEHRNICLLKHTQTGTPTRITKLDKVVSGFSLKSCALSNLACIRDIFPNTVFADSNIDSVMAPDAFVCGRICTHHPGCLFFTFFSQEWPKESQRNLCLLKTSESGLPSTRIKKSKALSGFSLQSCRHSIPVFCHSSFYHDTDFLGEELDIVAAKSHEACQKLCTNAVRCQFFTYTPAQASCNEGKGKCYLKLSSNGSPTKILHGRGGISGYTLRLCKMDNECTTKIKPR
Protocol: The factor XIa inhibition of the inventive substances is determined using a biochemical test system which utilizes the reaction of a peptidic factor XIa substrate to determine the enzymatic activity of human factor XIa. Here, factor XIa cleaves from the peptic factor XIa substrate the C-terminal aminomethylcoumarin (AMC), the fluorescence of which is measured. The determinations are carried out in microtitre plates.
Test substances are dissolved in dimethyl sulphoxide and serially diluted in dimethyl sulphoxide (3000 μM to 0.0078 μM; resulting final concentrations in the test: 50 μM to 0.00013 μM). In each case 1 μl of the diluted substance solutions is placed into the wells of white microtitre plates from Greiner (384 wells). Subsequently, the following are added successively: 20 μl of assay buffer (50 mmol/l Tris buffer pH 7.4; 100 mmol/l sodium chloride; 5 mmol/l calcium chloride; 0.1% bovine serum albumin) and 20 μl of factor XIa from Kordia (0.45 nM in assay buffer). After 15 min of incubation, the enzyme reaction is started by addition of 20 μl of the factor XIa substrate Boc-Glu(OBzl)-Ala-Arg-AMC dissolved in assay buffer (10 μM in assay buffer) from Bachem, the mixture is incubated at room temperature (22° C.) for 30 min and fluorescence is then measured (excitation: 360 nm, emission: 460 nm). The measured emissions of the test mixtures with test substance are compared to those of control mixtures without test substance (only dimethyl sulphoxide instead of test substance in dimethyl sulphoxide), and the IC50 values are calculated from the concentration/activity relationships.

SMILES	aPTT (human and animal plasma)	IC50 (human factor XIa)
Cc1cc(C(=O)N[C@@H]2CCNC2)ccc1-c1ccc(C[C@H](NC(=O)[C@H]2CC[C@H](CN)CC2)C(=O)Nc2ccc(-c3nn[nH]n3)cc2)cc1 [Example 8, 4′-[(2S)-2-({[trans-4-(Aminomethyl)cyclohexyl]carbonyl}amino)-3-oxo-3-{[4-(2H-tetrazol-5-yl)phenyl]amino}propyl]-2-methyl-N-[(3R)-pyrrolidin-3-yl]biphenyl-4-carboxamide hydrochloride]	0.09 µmol/L	2.5 nM
Cc1cc(C(=O)N[C@H]2CCNC2)ccc1-c1ccc(C[C@H](NC(=O)[C@H]2CC[C@H](CN)CC2)C(=O)Nc2ccc(-c3nn[nH]n3)cc2)cc1 [Example 9, 4′-[(2S)-2-({[trans-4-(Aminomethyl)cyclohexyl]carbonyl}amino)-3-oxo-3-{[4-(2H-tetrazol-5-yl)phenyl]amino}propyl]-2-methyl-N-[(3S)-pyrrolidin-3-yl]biphenyl-4-carboxamide hydrochloride]	0.09 µmol/L	1.7 nM
CCN(CC)CCNC(=O)c1ccc(-c2ccc(C[C@H](NC(=O)[C@H]3CC[C@H](CN)CC3)C(=O)Nc3ccc(-c4nn[nH]n4)cc3)cc2)c(Cl)c1 [Example 10, 4′-[(2S)-2-({[trans-4-(Aminomethyl)cyclohexyl]carbonyl}amino)-3-oxo-3-{[4-(2H-tetrazol-5-yl)phenyl]amino}propyl]-2-chloro-N-[2-(diethylamino)ethyl]biphenyl-4-carboxamide hydrochloride]	0.13 µmol/L	4.4 nM
NC[C@H]1CC[C@H](C(=O)N[C@@H](Cc2ccc(-c3ccc(C(=O)NC4CCNCC4)cc3Cl)cc2)C(=O)Nc2ccc(-c3nn[nH]n3)cc2)CC1 [Example 11, 4′-[(2S)-2-({[trans-4-(Aminomethyl)cyclohexyl]carbonyl}amino)-3-oxo-3-{[4-(2H-tetrazol-5-yl)phenyl]amino}propyl]-2-chloro-N-(piperidin-4-yl)biphenyl-4-carboxamide hydrochloride]	0.08 µmol/L	2.5 nM
NC[C@H]1CC[C@H](C(=O)N[C@@H](Cc2ccc(-c3ccc(C(=O)N[C@@H]4CCNC4)cc3Cl)cc2)C(=O)Nc2ccc(-c3nn[nH]n3)cc2)CC1 [Example 12, 4′-[(2S)-2-({[trans-4-(Aminomethyl)cyclohexyl]carbonyl}amino)-3-oxo-3-{[4-(2H-tetrazol-5-yl)phenyl]amino}propyl]-2-chloro-N-[(3R)-pyrrolidin-3-yl]biphenyl-4-carboxamide hydrochloride]	0.1 µmol/L	2.7 nM
NC[C@H]1CC[C@H](C(=O)N[C@@H](Cc2ccc(-c3ccc(C(=O)N[C@H]4CCNC4)cc3Cl)cc2)C(=O)Nc2ccc(-c3nn[nH]n3)cc2)CC1 [Example 13, 4′-[(2S)-2-({[trans-4-(Aminomethyl)cyclohexyl]carbonyl}amino)-3-oxo-3-{[4-(2H-tetrazol-5-yl)phenyl]amino}propyl]-2-chloro-N-[(3S)-pyrrolidin-3-yl]biphenyl-4-carboxamide hydrochloride]	0.44 µmol/L	4.2 nM
Cc1cc(C(N)=O)ccc1-c1ccc(C[C@H](NC(=O)[C@H]2CC[C@H](CN)CC2)C(=O)Nc2ccc(-c3nn[nH]n3)cc2)cc1 [Example 14, 4′-[(2S)-2-({[trans-4-(Aminomethyl)cyclohexyl]carbonyl}amino)-3-oxo-3-{[4-(2H-tetrazol-5-yl)phenyl]amino}propyl]-2-methylbiphenyl-4-carboxamide hydrochloride]	0.49 µmol/L	1.4 nM
Cc1cc(C(=O)NCCN)ccc1-c1ccc(C[C@H](NC(=O)[C@H]2CC[C@H](CN)CC2)C(=O)Nc2ccc(-c3nn[nH]n3)cc2)cc1 [Example 15, N-(2-Aminoethyl)-4′-[(2S)-2-({[trans-4-(aminomethyl)cyclohexyl]carbonyl}amino)-3-oxo-3-{[4-(2H-tetrazol-5-yl)phenyl]amino}propyl]-2-methylbiphenyl-4-carboxamide hydrochloride]	0.09 µmol/L	2.9 nM
Cc1cc(C(=O)N2CCNCC2)ccc1-c1ccc(C[C@H](NC(=O)[C@H]2CC[C@H](CN)CC2)C(=O)Nc2ccc(-c3nn[nH]n3)cc2)cc1 [Example 16, trans-4-(Aminomethyl)-N-[(2S)-3-[2′-methyl-4′-(piperazin-1-ylcarbonyl)biphenyl-4-yl]-1-oxo-1-{[4-(2H-tetrazol-5-yl)phenyl]amino}propan-2-yl]cyclohexanecarboxamide hydrochloride]	0.23 µmol/L	3.9 nM
Cc1cc(C(=O)NCCO)ccc1-c1ccc(C[C@H](NC(=O)[C@H]2CC[C@H](CN)CC2)C(=O)Nc2ccc3cn[nH]c3c2)cc1 [Example 17, 4′-[(2S)-2-({[trans-4-(Aminomethyl)cyclohexyl]carbonyl}amino)-3-(1H-indazol-6-ylamino)-3-oxopropyl]-N-(2-hydroxyethyl)-2-methylbiphenyl-4-carboxamide hydrochloride]	0.35 µmol/L	6.1 nM
Cc1cc(C(=O)NCCO)ccc1-c1ccc(C[C@H](NC(=O)[C@H]2CC[C@H](CN)CC2)C(=O)Nc2ccc(-c3nn[nH]n3)cc2)cc1 [Example 18, 4′-[(2S)-2-({[trans-4-(Aminomethyl)cyclohexyl]carbonyl}amino)-3-oxo-3-{[4-(2H-tetrazol-5-yl)phenyl]amino}propyl]-N-(2-hydroxyethyl)-2-methylbiphenyl-4-carboxamide hydrochloride]	0.16 µmol/L	3.7 nM
Cc1cc(C(=O)NC2CCNCC2)ccc1-c1ccc(C[C@H](NC(=O)[C@H]2CC[C@H](CN)CC2)C(=O)Nc2ccc3c(=O)[nH][nH]c3c2)cc1 [Example 22, 4′-{(2S)-2-({[trans-4-(Aminomethyl)cyclohexyl]carbonyl}amino)-3-oxo-3-[(3-oxo-2,3-dihydro-1H-indazol-6-yl)amino]propyl}-2-methyl-N-(piperidin-4-yl)biphenyl-4-carboxamide hydrochloride]	0.06 µmol/L	15 nM
CCN(CC)CCNC(=O)c1ccc(-c2ccc(C[C@H](NC(=O)[C@H]3CC[C@H](CN)CC3)C(=O)Nc3ccc4c(=O)[nH][nH]c4c3)cc2)c(C)c1 [Example 23, 4′-{(2S)-2-({[trans-4-(Aminomethyl)cyclohexyl]carbonyl}amino)-3-oxo-3-[(3-oxo-2,3-dihydro-1H-indazol-6-yl)amino]propyl}-N-[2-(diethylamino)ethyl]-2-methylbiphenyl-4-carboxamide hydrochloride]	0.28 µmol/L	27.5 nM
CCN(CC)CCCNC(=O)c1ccc(-c2ccc(C[C@H](NC(=O)[C@H]3CC[C@H](CN)CC3)C(=O)Nc3ccc4c(=O)[nH][nH]c4c3)cc2)c(C)c1 [Example 24, 4′-{(2S)-2-({[trans-4-(Aminomethyl)cyclohexyl]carbonyl}amino)-3-oxo-3-[(3-oxo-2,3-dihydro-1H-indazol-6-yl)amino]propyl}-N-[3-(diethylamino)propyl]-2-methylbiphenyl-4-carboxamide hydrochloride]	0.31 µmol/L	18 nM

— US20160272617A1, “SUBSTITUTED PHENYLALANINE DERIVATIVES” (BAYER PHARMA AKTIENGESELLSCHAFT, priority 2013, published 2016)
